Reference: patent publication US20230265116A1, “DEGRADATION OF (EGFR) BY CONJUGATION OF EGFR INHIBITORS WITH E3 LIGASE LIGAND AND METHODS OF USE” (BEIGENE, LTD., priority 2020, published 2023)
Like-named read-outs stand apart in the source and are kept apart here.

Experiments:
Format in all cases: cell-based
[1] = target: T1, EGFR L858R/T790M/C797S (BaF3-LTC cells) (Homo sapiens, UniProt P00533, C797S/L858R/T790M); test: EGFR degradation HTRF assay, BaF3-LTC cells; details: for Dmax: maximum percentage of degradation, read-out: LTC Dmax (%)
T1 construct: expressed in transfected cells; host or cells: BaF3
How it was run: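 EGFR remaining after a 16 h, 37 °C exposure (8 doses, 5-fold steps from 10 uM final, 0.2% DMSO) was quantified by HTRF antibodies in cell lysate. Percent inhibition relative to DMSO control was fitted by four-parameter logistic to give DC50; Dmax denotes maximal degradation.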

[2] = system: EGFR Del19/T790M/C797S (BaF3-DTC cells); test: EGFR degradation HTRF assay, BaF3-DTC cells; details: 16h treatment; for DTC Dmax (%): maximum percentage of degradation; for DC50: read-out: DTC DC50
Experimental: BaF3 WT(wild type), BaF3-LTC(L858R/T790M/C797S) and BaF3-DTC(Del19/T790M/C797S) cells are treated with compounds diluted in 0.2% DMSO cell culture medium and incubate for 16h, 37° C., 5% CO2, H1975-#36, H1975-#28, H1975-#23 and HCC827 cells are treated with compounds diluted in 0.2% DMSO cell culture medium on day 2, incubate for 16h, 37° C., 5% CO2.the final concentriation of compounds in all assay is start with 10 uM, 5-fold dilution, total 8 doses were included.
After 16h treatment, add HTRF lysis buffer to each well; seal the plate and incubate 1 hour at room temperature on a plate shaker; Once the cells are lysed, 16 μL of cell lysate are transferred to a PE 384-well HTRF detection plate; 4 μL of pre-mixed HTRF antibodies are added to each well; Cover the plate with a plate sealer, spin 1000 rpm for 1 min, Incubate overnight at room temperature; Read on BMG PheraStar with HTRF protocol (337 nm-665 nm-620 nm).
The inhibition (degradation) percentage of the compound was calculated by the following equation: Inhibition percentage of Compound=100-100×(Signal-low control)/(High control-low control), wherein signal=each test compound group
High control=Cell group with added DMSO and without compound, indicating microplate readings without EGFR degradation;
Dmax is the maximum percentage of inhibition (degradation).
The IC50 (DC50) value of a compound can be obtained by fitting the following equation
Y=Bottom+(TOP−Bottom)/(1+((IC50/X)^hillslope))
Wherein, X and Y are known values, and IC50, Hillslope, Top and Bottom are the parameters obtained by fitting with software. Y is the inhibition percentage (calculated from the equation), X is the concentration of the compound; IC50 is the concentration of the compound when the 50% inhibition is reached. The smaller the IC50 value is, the stronger the inhibitory ability of the compound is. Vice versa, the higher the IC50 value is, the weaker the inhibitory ability of the compound is; Hillslope represents the slope of the fitted curve, generally around 1*; Bottom represents the minimum value of the curve obtained by data fitting, which is generally 0%±20%; Top represents the maximum value of the curve obtained by data fitting, which is generally 100%±20%. The experimental data were fitted by calculating and analyzing with Dotmatics data analysis software.

[3] = system: EGFR Del19/T790M/C797S (H1975-clone #28); test: EGFR degradation HTRF assay, H1975-clone #28 DTC cells; details: H1975 # 28 DTC cells; for DC50: EGFR degradation, IC50 (DC50) from curve fit, read-out: DC50(nM) H1975 # 28 DTC; for Dmax (%) H1975 # 28 DTC: maximum percentage of inhibition (degradation)
How it was run: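 Cells were dosed on day 2 with an 8-point, 5-fold dilution series starting at 10 uM final and incubated 16h at 37° C. After lysis for 1 hour, HTRF antibodies were added overnight at room temperature and the plate was read at 665/620 nm. Degradation was normalised to DMSO wells and fitted for DC50 and Dmax.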

[4] = BaF3-LTC, 16h treatment, read-out: LTC DC50
[5] = BaF3-LTC cells, EGFR degradation, IC50 (DC50) from curve fit, read-out: DC50(nM) BaF3-LTC

T1 sequence (P00533 25-1210 T790M/C797S/L858R): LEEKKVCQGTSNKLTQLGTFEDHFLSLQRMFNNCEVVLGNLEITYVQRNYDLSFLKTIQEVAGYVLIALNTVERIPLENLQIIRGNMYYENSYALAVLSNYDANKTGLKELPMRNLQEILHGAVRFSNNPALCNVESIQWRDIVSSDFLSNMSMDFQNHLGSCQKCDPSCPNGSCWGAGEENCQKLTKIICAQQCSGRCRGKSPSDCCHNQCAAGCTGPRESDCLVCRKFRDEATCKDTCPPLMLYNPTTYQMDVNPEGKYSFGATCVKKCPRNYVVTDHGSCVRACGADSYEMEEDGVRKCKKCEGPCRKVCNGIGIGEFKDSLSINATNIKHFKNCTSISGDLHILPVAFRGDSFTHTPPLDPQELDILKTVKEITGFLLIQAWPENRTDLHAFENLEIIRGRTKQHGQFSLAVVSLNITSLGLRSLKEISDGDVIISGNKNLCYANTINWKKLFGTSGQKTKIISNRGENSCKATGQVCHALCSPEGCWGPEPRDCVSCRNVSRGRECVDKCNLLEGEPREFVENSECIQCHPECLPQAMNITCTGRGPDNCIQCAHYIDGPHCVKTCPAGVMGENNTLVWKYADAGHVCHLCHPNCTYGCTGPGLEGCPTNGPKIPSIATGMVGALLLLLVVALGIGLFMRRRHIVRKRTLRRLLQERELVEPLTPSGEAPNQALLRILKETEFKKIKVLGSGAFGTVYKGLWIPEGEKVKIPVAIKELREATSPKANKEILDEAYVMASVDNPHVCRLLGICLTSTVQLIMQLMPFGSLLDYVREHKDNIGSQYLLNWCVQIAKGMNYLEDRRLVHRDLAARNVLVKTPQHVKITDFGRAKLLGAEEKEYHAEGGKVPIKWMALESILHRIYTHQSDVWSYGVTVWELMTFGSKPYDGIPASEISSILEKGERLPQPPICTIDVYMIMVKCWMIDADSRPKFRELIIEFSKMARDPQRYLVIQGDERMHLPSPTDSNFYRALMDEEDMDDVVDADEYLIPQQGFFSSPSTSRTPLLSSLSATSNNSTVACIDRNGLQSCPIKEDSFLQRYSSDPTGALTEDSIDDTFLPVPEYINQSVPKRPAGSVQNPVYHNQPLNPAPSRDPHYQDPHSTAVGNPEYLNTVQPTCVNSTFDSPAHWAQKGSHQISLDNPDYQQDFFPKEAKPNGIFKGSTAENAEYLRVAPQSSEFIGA

Row | Compound | Dmax ([1]; BaF3-LTC, 16h treatment) [%] | DC50 [1, 4] [nM] | DTC Dmax (%) [2] [%] | DC50 [2] [nM] | DC50 [1, 5] [nM] | DC50 [3] [nM] | Dmax (%) H1975 # 28 DTC [3] [%]
1 | CCc1cc(Nc2ncc(Br)c(Nc3ccc4nccnc4c3P(C)(C)=O)n2)c(OC)cc1N1CCC(N2CCN(CCc3ccc(C4CCC(=O)NC4=O)cc3F)CC2)CC1 (centres unmarked) [Example 6, 3-(4-(2-(4-(1-(4-((5-bromo-4-((5-(dimethylphosphoryl)quinoxalin-6-yl)amino)pyrimidin-2-yl)amino)-2-ethyl-5-methoxyphenyl)piperidin-4-yl)piperazin-1-yl)ethyl)-3-fluorophenyl)piperidine-2,6-dione] | 82.2 | 102 | 81.2 | 9.2 |  |  | 
2 | CCc1cc(Nc2ncc(Br)c(Nc3ccc4nccnc4c3P(C)(C)=O)n2)c(OC)cc1N1CCC(N2CCN(C(=O)[C@H]3CCN(c4ccc5c(c4)C(=O)N(C4CCC(=O)NC4=O)C5=O)C3)CC2)CC1 (stereo partly drawn) [Example 66, 5-((S)-3-(4-(1-(4-((5-bromo-4-((5-(dimethylphosphoryl)quinoxalin-6-yl)amino)pyrimidin-2-yl)amino)-2-ethyl-5-methoxyphenyl)piperidin-4-yl)piperazine-1-carbonyl)pyrrolidin-1-yl)-2-(2,6-dioxopiperidin-3-yl)isoindoline-1,3-dione] | 86.3 | 11 | 92.43 | 4.19 |  |  | 
3 | CCc1cc(Nc2ncc(Br)c(Nc3ccc4nccnc4c3P(C)(C)=O)n2)c(OC)cc1N1CCC(N2C[C@@H](C)N(CC3CN(c4ccc5c(c4)C(=O)N(C4CCC(=O)NC4=O)C5=O)C3)[C@@H](C)C2)CC1 (stereo partly drawn) [Example 159, 5-(3-(((2R,6S)-4-(1-(4-((5-bromo-4-((5-(dimethylphosphoryl)quinoxalin-6-yl)amino)pyrimidin-2-yl)amino)-2-ethyl-5-methoxyphenyl)piperidin-4-yl)-2,6-dimethylpiperazin-1-yl)methyl)azetidin-1-yl)-2-(2,6-dioxopiperidin-3-yl)isoindoline-1,3-dione] | 88.3 | 16.1 | 87.25 | 9.34 |  |  | 
4 | CCc1cc(Nc2ncc(Br)c(Nc3ccc4nccnc4c3P(C)(C)=O)n2)c(OC)cc1N1CCC(N2CCN(CCc3cc(F)c(C4CCC(=O)NC4=O)cc3Cl)CC2)CC1 (centres unmarked) [Example 165, 3-(4-(2-(4-(1-(4-((5-bromo-4-((5-(dimethylphosphoryl)quinoxalin-6-yl)amino)pyrimidin-2-yl)amino)-2-ethyl-5-methoxyphenyl)piperidin-4-yl)piperazin-1-yl)ethyl)-5-chloro-2-fluorophenyl)piperidine-2,6-dione] | 84.2 | 44 | 82.21 | 18.1 |  |  | 
5 | CCc1cc(Nc2ncc(Br)c(Nc3ccc4nccnc4c3P(C)(C)=O)n2)c(OC)cc1N1CCC(N2CCN(CCc3cc(Cl)c(C4CCC(=O)NC4=O)cc3F)CC2)CC1 (centres unmarked) [Example 166, 3-(4-(2-(4-(1-(4-((5-bromo-4-((5-(dimethylphosphoryl)quinoxalin-6-yl)amino)pyrimidin-2-yl)amino)-2-ethyl-5-methoxyphenyl)piperidin-4-yl)piperazin-1-yl)ethyl)-2-chloro-5-fluorophenyl)piperidine-2,6-dione] | 80.1 | 49.3 | 85.99 | 13.5 |  |  | 
6 | CCc1cc(Nc2ncc(Br)c(Nc3ccc4nccnc4c3P(C)(C)=O)n2)c(OC)cc1N1CCN(C2CCN(C3CCC(c4ccc(C5CCC(=O)NC5=O)cc4)C3)CC2)CC1 (centres unmarked) [Example 178, 3-(4-(3-(4-(4-(4-((5-bromo-4-((5-(dimethylphosphoryl)quinoxalin-6-yl)amino)pyrimidin-2-yl)amino)-2-ethyl-5-methoxyphenyl)piperazin-1-yl)piperidin-1-yl)cyclopentyl)phenyl)piperidine-2,6-dione] | 83.5 | 71.8 | 81.18 | 44.4 |  |  | 
7 | CCc1cc(Nc2ncc(Br)c(Nc3ccc4nccnc4c3P(C)(C)=O)n2)c(OC)cc1N1CCC(N2CCN(C(=O)C3CN(c4ccc(C5CCC(=O)NC5=O)cc4)C3)CC2)CC1 (centres unmarked) [Example 199, 3-(4-(3-(4-(1-(4-((5-bromo-4-((5-(dimethylphosphoryl)quinoxalin-6-yl)amino)pyrimidin-2-yl)amino)-2-ethyl-5-methoxyphenyl)piperidin-4-yl)piperazine-1-carbonyl)azetidin-1-yl)phenyl)piperidine-2,6-dione] | 86.6 | 22.1 | 84.49 | 9.03 |  |  | 
8 | CCc1cc(Nc2ncc(Br)c(Nc3ccc4cc(C)ncc4c3P(C)(C)=O)n2)c(OC)cc1N1CCC(N2CCN(CCc3cc(F)c(C4CCC(=O)NC4=O)c(F)c3)CC2)CC1 (centres unmarked) [Example 200, 3-(4-(2-(4-(1-(4-((5-bromo-4-((8-(dimethylphosphoryl)-3-methylisoquinolin-7-yl)amino)pyrimidin-2-yl)amino)-2-ethyl-5-methoxyphenyl)piperidin-4-yl)piperazin-1-yl)ethyl)-2,6-difluorophenyl)piperidine-2,6-dione] | 88.6 | 11.1 | 93.3 | 2.8 |  |  | 
9 | CCOc1cc(N2CCC(N3CCN(C(=O)[C@H]4CN(c5cc(F)c([C@H]6CCC(=O)NC6=O)c(F)c5)CC4(C)C)CC3)CC2)c(CC)cc1Nc1ncc(Br)c(Nc2ccc3nc(C)ccc3c2P(C)(C)=O)n1 [Example 747, (R)-3-(4-((R)-4-(4-(1-(4-((5-bromo-4-((5-(dimethylphosphoryl)-2-methylquinolin-6-yl)amino)pyrimidin-2-yl)amino)-5-ethoxy-2-ethylphenyl)piperidin-4-yl)piperazine-1-carbonyl)-3,3-dimethylpyrrolidin-1-yl)-2,6-difluorophenyl)piperidine-2,6-dione] |  |  |  |  | 19.8 | 2.91 | 76.51
10 | CCc1ncc2c(P(C)(C)=O)c(Nc3nc(Nc4cc(C)c(N5CCC(N6CCN(CCc7cc(F)c([C@H]8CCC(=O)NC8=O)c(F)c7)CC6)CC5)cc4OC)ncc3Br)ccc2n1 [Example 748, (R)-3-(4-(2-(4-(1-(4-((5-bromo-4-((5-(dimethylphosphoryl)-2-ethylquinazolin-6-yl)amino)pyrimidin-2-yl)amino)-5-methoxy-2-methylphenyl)piperidin-4-yl)piperazin-1-yl)ethyl)-2,6-difluorophenyl)piperidine-2,6-dione] |  |  |  |  | 5.75 | 0.455 | 91.78
11 | CCOc1cc(N2CCC(N3CCN(CCc4cc(F)c([C@H]5CCC(=O)NC5=O)c(F)c4)CC3)CC2)c(CC)cc1Nc1nccc(Nc2ccc3nc(CC)ncc3c2P(C)(C)=O)n1 [Example 749, (R)-3-(4-(2-(4-(1-(4-((4-((5-(dimethylphosphoryl)-2-ethylquinazolin-6-yl)amino)pyrimidin-2-yl)amino)-5-ethoxy-2-ethylphenyl)piperidin-4-yl)piperazin-1-yl)ethyl)-2,6-difluorophenyl)piperidine-2,6-dione] |  |  |  |  | 294 | 14.8 | 66.03
12 | CCc1cc(Nc2ncc(Br)c(Nc3ccc4nccnc4c3P(C)(C)=O)n2)c(OC)cc1N1CCC(N2CCN(CCc3cc(F)c([C@H]4CCC(=O)NC4=O)c(F)c3)CC2)CC1 [Example 751, (R)-3-(4-(2-(4-(1-(4-((5-bromo-4-((5-(dimethylphosphoryl)quinoxalin-6-yl)amino)pyrimidin-2-yl)amino)-2-ethyl-5-methoxyphenyl)piperidin-4-yl)piperazin-1-yl)ethyl)-2,6-difluorophenyl)piperidine-2,6-dione] |  |  |  |  | 9.43 | 0.759 | 92.19
